ChEMBL document CHEMBL5113423, “Discovery and preclinical profile of sudapyridine (WX-081), a novel anti-tuberculosis agent” (Bioorg Med Chem Lett, 2022)
In brackets after ≈: the same amount, converted by molar mass.

System: Mycobacterium tuberculosis variant bovis
Experiment: Antimycobacterial activity against Mycobacterium bovis ATCC35737 assessed as mycobacterial growth inhibition
Format: functional

SMILES: COc1ncc(-c2ccccc2)cc1[C@@H](c1ccccc1)[C@@](O)(CCN(C)C)c1cccc2ccccc12
- MIC: 0.5 µg/mL (≈ 0.995 µM)
